Where two headings read alike, the source gives them in different places. Non-standard residues stand in square brackets, D forms with d. Residues, ends and D or L forms follow the SMILES beside them.
How the values were obtained:
[1] = system: P. aeruginosa PA14 4.13 (phoQ); conditions: for MIC P. aeruginosa PA14 4.13: supplement CSV
[2] = system: E. coli W3110; test: microbe, parasite or virus in culture; conditions: for MIC E. coli W3110: supplement CSV
Outline: (§1)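 Read-out was visible growth after MTT addition, the MIC being the lowest inhibitory peptide concentration. Bacteria grown to log phase in LB were exposed in MH medium to peptide from 64 μg/mL in twofold dilutions for 15-18h at 37°C.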

[3] = system: P. aeruginosa PAO1; test: microbe, parasite or virus in culture; conditions: supplement CSV
Outline: as §1

[4] = system: K. pneumoniae NCTC 418; test: microbe, parasite or virus in culture; conditions: supplement CSV
Outline: as §1

[5] = system: S. aureus COL (MRSA); test: microbe, parasite or virus in culture; conditions: for MIC S. aureus COL (MRSA): supplement CSV
Outline: as §1

[6] = system: A. baumannii ATCC19606; test: microbe, parasite or virus in culture
Outline: as §1

[7] = system: human red blood cells; conditions: red cells of human, 6 h
[8] = system: P. aeruginosa PA14 4.18 (pmrB); conditions: for MIC P. aeruginosa PA14 4.18: supplement CSV
[9] = system: P. aeruginosa PA14 2P4 (pmrB); test: microbe, parasite or virus in culture; conditions: for MIC P. aeruginosa PA14 2P4: supplement CSV
Description: (§2) Minimum inhibitory concentration assay
(§3) Antimicrobial activity was assayed against P. aeruginosa PAO1, K. pneumoniae NCTC418, E. coli W3110, A. baumannii ATCC 19606, methicillin-resistant S. aureus COL (MRSA), and for selected peptides on P. aeruginosa PA14 and the polymyxin-B-resistant derivative PA14 2P4, as well as the clinical isolates ZEM-1A and ZEM9A, K. pneumoniae OXA-48, S. aureus Newman, Enterobacter cloacae and Burkholderia cenocepacia. The minimal inhibitory concentration (MIC) was determined by using broth microdilution method. A colo ny of bacteria was picked and grown in Luria-Bertani (LB) medium overnight at 37°C. For E. coli BW25113 sbmA::kan the medium was supplemented with 25 mg/L of kanamycin. The next day, the culture was then regrown in LB medium to log phase (OD600 = 0.6 to 0.8), which lasted approximately 4 h, and diluted to an OD600 of 0.022 in the desired medium. Stock solutions of 1 mg/mL of the samples were prepared in sterilized milliQ water and diluted to the beginning concentration of 64 μg/mL in 300 μL Mueller Hinton (MH)-medium. The diluted samples were added to first well of 96-well microtiter plate (TPP, untreated, Faust Laborbedarf, AG, Schaffhausen) and diluted serially by ½. Finally, 4 μL of the bacterial suspension was inoculated into the sample solutions (150 μL/well) with a final inoculation of about 5∙10^5 CFU/mL. The plates were then incubated at 37°C for 15-18h. For each assay, sterility (broth only) and growth control (broth with bacterial inoculum, without antibiotics) were checked with two columns in the plate. The next day, 15 μL of 3-(4,5-dimethylthiazol-2-yl)-2,5-diphenyltetrazolium bromide (MTT) was added to each well of the plate, such a way that MIC was defined as the lowest concentration of the peptide that inhibited visible growth of the tested

[10] = system: P. aeruginosa PA14; test: microbe, parasite or virus in culture; conditions: for MIC P. aeruginosa PA14: supplement CSV
Description: as §2, §3

[11] = system: P. aeruginosa ZEM9A; test: microbe, parasite or virus in culture; conditions: for MIC P. aeruginosa ZEM9A: supplement CSV
Description: as §2, §3

[12] = system: P. aeruginosa ZEM-1A; test: microbe, parasite or virus in culture; conditions: for MIC P. aeruginosa ZEM-1A: supplement CSV
Description: as §2, §3

[13] = system: E. cloacae; test: microbe, parasite or virus in culture; conditions: for MIC E. cloacae: supplement CSV
Description: as §2, §3

[14] = system: K. pneumoniae OXA-48; test: microbe, parasite or virus in culture; conditions: for MIC K. pneumoniae OXA-48: supplement CSV
Description: as §2, §3

[15] = polymyxin B resistant strain, 12.5% MHB pH 7.4, 16–20 h at 37 °C
[16] = polymyxin B resistant strain, full MHB pH 7.4, 16–20 h at 37 °C

CC(C)C[C@H](NC(=O)[C@H](CC(C)C)NC(=O)[C@H](CC(C)C)NC(=O)[C@@H](CCCCN)NC(=O)[C@H](CC(C)C)NC(=O)[C@H](CC(C)C)NC(=O)[C@@H](CCCCN)NC(=O)[C@H](CC(C)C)NC(=O)[C@H](CC(C)C)NC(=O)[C@@H](CCCCN)NC(=O)[C@H](N)CCCCN)C(N)=O [ln69, reference compound] (H-[dK][dK]LL[dK]LL[dK]LLL-NH2)
1 mg/L: MIC P. aeruginosa ZEM-1A, full MHB ([12]; clinical isolate, full MHB pH 7.4, 16–20 h at 37 °C, cells marked c: single measurement (in duplicates)) | MIC P. aeruginosa ZEM-1A ([12]; full MH pH 7.4)
2/2 μg/mL: MIC P. aeruginosa PA14, 12.5% MHB ([10]; 12.5% MHB pH 7.4, 16–20 h at 37 °C, two different duplicate MIC determinations) | MIC P. aeruginosa PA14, full MHB ([10]; full MHB pH 7.4, 16–20 h at 37 °C, two different duplicate MIC determinations)
4 to 8 mg/L: MIC P. aeruginosa ZEM9A, full MHB ([11]; clinical isolate, full MHB pH 7.4, 16–20 h at 37 °C) | MIC P. aeruginosa ZEM9A ([11]; full MH pH 7.4)
2 to 4 mg/L: MIC A. baumannii, Full MHB ([6]; A. baumannii ATCC19606, full Müller–Hinton medium, 16–20 h at 37 °C)
2 mg/L: MIC P. aeruginosa PA14 4.13 (phoQ), 12.5% MHB [1, 15] | MIC P. aeruginosa PA14 4.13 ([1]; 12.5% MH pH 7.4) | MIC E. coli, 12.5% MHB ([2]; E. coli W3110, 12.5% Müller–Hinton medium, 16–20 h at 37 °C, broth microdilution) | MIC E. coli W3110 ([2]; 12.5% MH pH 7.4) | MIC P. aeruginosa PAO1 ([3]; 12.5% MH pH 7.4) | MIC S. aureus, 12.5% MHB ([5]; S. aureus COL (MRSA), 12.5% Müller–Hinton medium, 16–20 h at 37 °C) | MIC S. aureus COL (MRSA) ([5]; 12.5% MH pH 7.4) | MIC A. baumannii, 12.5% MHB ([6]; A. baumannii ATCC19606, 12.5% Müller–Hinton medium, 16–20 h at 37 °C) | MIC A. baumannii ATCC19606 ([6]; supplement CSV, 12.5% MH pH 7.4) | MIC P. aeruginosa PA14 4.18 (pmrB), 12.5% MHB [8, 15] | MIC P. aeruginosa PA14 4.18 ([8]; 12.5% MH pH 7.4) | MIC P. aeruginosa PA14 ([10]; 12.5% MH pH 7.4) | MIC P. aeruginosa PA14 ([10]; full MH pH 7.4) | MIC P. aeruginosa ZEM9A ([11]; 12.5% MH pH 7.4) | MIC E. cloacae, 12.5% MHB ([13]; 12.5% MHB pH 7.4, 16–20 h at 37 °C) | MIC E. cloacae ([13]; 12.5% MH pH 7.4)
4/4 μg/mL: MIC K. pneumoniae OXA-48, 12.5% MHB ([14]; carbapenem-resistant, 12.5% MHB pH 7.4, 16–20 h at 37 °C) | MIC K. pneumoniae OXA-48, full MHB ([14]; carbapenem-resistant, full MHB pH 7.4, 16–20 h at 37 °C)
16 mg/L: MIC S. aureus, Full MHB ([5]; S. aureus COL (MRSA), full Müller–Hinton medium, 16–20 h at 37 °C) | MIC S. aureus COL (MRSA) ([5]; full MH pH 7.4) | MIC P. aeruginosa PA14 4.18 (pmrB), full MHB [8, 16] | MIC P. aeruginosa PA14 4.18 ([8]; full MH pH 7.4)
4 mg/L: MIC P. aeruginosa PA14 4.13 (phoQ), full MHB [1, 16] | MIC P. aeruginosa PA14 4.13 ([1]; full MH pH 7.4) | MIC E. coli, Full MHB ([2]; E. coli W3110, full Müller–Hinton medium, 16–20 h at 37 °C, broth microdilution) | MIC E. coli W3110 ([2]; full MH pH 7.4) | MIC P. aeruginosa PAO1 ([3]; full MH pH 7.4) | MIC K. pneumoniae NCTC418 ([4]; 12.5% MH pH 7.4) | MIC P. aeruginosa PA14 2P4 (pmrB), 12.5% MHB [9, 15] | MIC P. aeruginosa PA14 2P4 ([9]; 12.5% MH pH 7.4) | MIC P. aeruginosa ZEM-1A, 12.5% MHB ([12]; clinical isolate, 12.5% MHB pH 7.4, 16–20 h at 37 °C, cells marked c: single measurement (in duplicates)) | MIC P. aeruginosa ZEM-1A ([12]; 12.5% MH pH 7.4) | MIC E. cloacae, full MHB ([13]; full MHB pH 7.4, 16–20 h at 37 °C) | MIC E. cloacae ([13]; full MH pH 7.4) | MIC K. pneumoniae OXA-48 ([14]; 12.5% MH pH 7.4) | MIC K. pneumoniae OXA-48 ([14]; full MH pH 7.4)
32 mg/L: MIC P. aeruginosa PA14 2P4 (pmrB), full MHB [9, 16] | MIC P. aeruginosa PA14 2P4 ([9]; full MH pH 7.4)
1000 µg/mL: MHC human red blood cells [7]
8 mg/L: MIC K. pneumoniae NCTC418 ([4]; full MH pH 7.4)
